Experiments:
Experiment in all cases: NCI 60 cell panel SRB screen
Format in all cases: cell-based
MOLT-4 = settings: Homo sapiens
HOP-92 = settings: Homo sapiens
NCI-H322M = settings: Homo sapiens
NCI-H522 = settings: Homo sapiens
COLO 205 = settings: Homo sapiens
HCC-2998 = settings: Homo sapiens
HCT-15 = settings: Homo sapiens
HT29 = settings: Homo sapiens, HT-29
KM12 = settings: Homo sapiens
LOX IMVI = settings: Homo sapiens
MDA-MB-435 = settings: Homo sapiens
OVCAR-4 = settings: Homo sapiens
UO-31 = settings: Homo sapiens
MCF7 = settings: Homo sapiens
MDA-MB 231/ATCC = settings: Homo sapiens
HS 578T = settings: Homo sapiens
BT-549 = settings: Homo sapiens
MDA-MB-468 = settings: Homo sapiens
How it was run: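 Cells in RPMI 1640 with 5% FBS, preincubated 24 h, then exposed to five concentrations for 48 h at 37 °C. TCA fixation, SRB staining, absorbance at 515 nm; a time-zero plate allows GI50 (50% reduction in net protein gain), TGI and LC50 (50% loss versus start).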

[1] = 5 log dose, 48 h, read-out: LC50 (the source's name)

**Q.** With `Clc1ccc(Nc2nnc(CNc3ccccc3)c3ccccc23)cc1` [Compound 16a, N-(4-Chlorophenyl)-4-((phenylamino)methyl)phthalazin-1-amine] as the molecule, how does the GI50 (MOLT-4; MOLT-4, 5 log dose) read?
**A.** The GI50 was 1.71 µM.

**Q.** And the IC (TGI) (MOLT-4; MOLT-4, 5 log dose)?
**A.** Its IC (TGI) is 8.75 µM.

**Q.** What about the CC50 (MOLT-4; MOLT-4, 5 log dose, 48 h, read-out: LC50 (the source's name)) of the same molecule?
**A.** Its CC50 is > 25 µM.

**Q.** And the activity at 10 µM (MOLT-4; MOLT-4, single dose 10 μM, read-out: percent cell growth promotion)?
**A.** Its activity at 10 µM is -9.21%.

**Q.** What about the GI50 (HOP-92; HOP-92, 5 log dose) of the same molecule?
**A.** The GI50 was 0.77 µM.

**Q.** And the IC (TGI) (HOP-92; HOP-92, 5 log dose)?
**A.** The IC (TGI) was 6.29 µM.

**Q.** And the CC50 (HOP-92; HOP-92, 5 log dose, 48 h, read-out: LC50 (the source's name))?
**A.** Its CC50 is > 25 µM.

**Q.** And the activity at 10 µM (HOP-92; HOP-92, single dose 10 μM, read-out: percent cell growth promotion)?
**A.** The activity at 10 µM was -19.4%.

**Q.** What about the GI50 (NCI-H322M; 5 log dose) of the same molecule?
**A.** The GI50 was 3.54 µM.

**Q.** And the IC (TGI) (NCI-H322M; 5 log dose)?
**A.** The IC (TGI) was 18.3 µM.

**Q.** What about the CC50 (NCI-H322M; [1]) of the same molecule?
**A.** The CC50 was > 25 µM.

**Q.** What about the activity at 10 µM (NCI-H322M; single dose 10 μM, read-out: percent cell growth promotion) of the same molecule?
**A.** The activity at 10 µM was 30.4%.

**Q.** What about the GI50 (NCI-H522; NCI-H522, 5 log dose) of the same molecule?
**A.** The GI50 was 0.68 µM.

**Q.** What about the IC (TGI) (NCI-H522; NCI-H522, 5 log dose) of the same molecule?
**A.** Its IC (TGI) is 4.62 µM.

**Q.** What about the CC50 (NCI-H522; NCI-H522, 5 log dose, 48 h, read-out: LC50 (the source's name)) of the same molecule?
**A.** Its CC50 is 18.5 µM.

**Q.** What about the activity at 10 µM (NCI-H522; NCI-H522, single dose 10 μM, read-out: percent cell growth promotion) of the same molecule?
**A.** Its activity at 10 µM is -5.92%.

**Q.** What about the GI50 (COLO 205; COLO 205, 5 log dose) of the same molecule?
**A.** Its GI50 is 0.91 µM.

**Q.** What about the IC (TGI) (COLO 205; COLO 205, 5 log dose) of the same molecule?
**A.** Its IC (TGI) is 5.39 µM.

**Q.** What about the CC50 (COLO 205; COLO 205, 5 log dose, 48 h, read-out: LC50 (the source's name)) of the same molecule?
**A.** Its CC50 is 20.5 µM.

**Q.** What about the activity at 10 µM (COLO 205; COLO 205, single dose 10 μM, read-out: percent cell growth promotion) of the same molecule?
**A.** Its activity at 10 µM is 11.9%.

**Q.** And the GI50 (HCC-2998; HCC-2998, 5 log dose)?
**A.** Its GI50 is 4.85 µM.

**Q.** And the IC (TGI) (HCC-2998; HCC-2998, 5 log dose)?
**A.** Its IC (TGI) is 1.59 µM.

**Q.** And the LC50 (50% lethal concentration) (HCC-2998; HCC-2998, 5 log dose, 48 h)?
**A.** The LC50 (50% lethal concentration) was > 25 µM.

**Q.** What about the activity at 10 µM (HCC-2998; HCC-2998, single dose 10 μM, read-out: percent cell growth promotion) of the same molecule?
**A.** The activity at 10 µM was 18.3%.

**Q.** And the GI50 (HCT-15; HCT-15, 5 log dose)?
**A.** The GI50 was 2.99 µM.

**Q.** And the IC (TGI) (HCT-15; HCT-15, 5 log dose)?
**A.** The IC (TGI) was 9.39 µM.

**Q.** What about the CC50 (HCT-15; HCT-15, 5 log dose, 48 h, read-out: LC50 (the source's name)) of the same molecule?
**A.** The CC50 was > 25 µM.

**Q.** What about the activity at 10 µM (HCT-15; HCT-15, single dose 10 μM, read-out: percent cell growth promotion) of the same molecule?
**A.** Its activity at 10 µM is 13.4%.

**Q.** And the GI50 (HT29; HT29, 5 log dose)?
**A.** The GI50 was 1.46 µM.

**Q.** And the IC (TGI) (HT29; HT29, 5 log dose)?
**A.** Its IC (TGI) is 6.36 µM.

**Q.** What about the CC50 (HT29; HT29, 5 log dose, 48 h, read-out: LC50 (the source's name)) of the same molecule?
**A.** Its CC50 is 21.2 µM.

**Q.** And the activity at 10 µM (HT29; HT29, single dose 10 μM, read-out: percent cell growth promotion)?
**A.** Its activity at 10 µM is 0.55%.

**Q.** What about the GI50 (KM12; KM12, 5 log dose) of the same molecule?
**A.** Its GI50 is 3.05 µM.

**Q.** What about the IC (TGI) (KM12; KM12, 5 log dose) of the same molecule?
**A.** The IC (TGI) was 9.91 µM.

**Q.** What about the CC50 (KM12; KM12, 5 log dose, 48 h, read-out: LC50 (the source's name)) of the same molecule?
**A.** Its CC50 is > 25 µM.

**Q.** What about the activity at 10 µM (KM12; KM12, single dose 10 μM, read-out: percent cell growth promotion) of the same molecule?
**A.** Its activity at 10 µM is 8.93%.

**Q.** And the GI50 (LOX IMVI)?
**A.** The GI50 was 1.57 µM.

**Q.** And the CC50 (LOX IMVI; [1])?
**A.** The CC50 was 11.4 µM.

**Q.** What about the IC (TGI) (LOX IMVI; read-out: TGI) of the same molecule?
**A.** The IC (TGI) was 4.97 µM.

**Q.** What about the activity at 10 µM (LOX IMVI; read-out: percent cell growth promotion) of the same molecule?
**A.** The activity at 10 µM was 12.1%.

**Q.** What about the GI50 (MDA-MB-435; MDA-MB-435) of the same molecule?
**A.** The GI50 was 1.47 µM.

**Q.** What about the IC (TGI) (MDA-MB-435; MDA-MB-435, read-out: TGI) of the same molecule?
**A.** Its IC (TGI) is 7.88 µM.

**Q.** What about the activity at 10 µM (MDA-MB-435; MDA-MB-435, read-out: percent cell growth promotion) of the same molecule?
**A.** The activity at 10 µM was 4.17%.

**Q.** What about the CC50 (MDA-MB-435; MDA-MB-435, 5 log dose, 48 h, read-out: LC50 (the source's name)) of the same molecule?
**A.** Its CC50 is > 25 µM.

**Q.** And the GI50 (OVCAR-4; OVCAR-4, 5 log dose)?
**A.** The GI50 was 3 µM.

**Q.** And the IC (TGI) (OVCAR-4; OVCAR-4, 5 log dose)?
**A.** Its IC (TGI) is > 25 µM.

**Q.** What about the CC50 (OVCAR-4; OVCAR-4, 5 log dose, 48 h, read-out: LC50 (the source's name)) of the same molecule?
**A.** The CC50 was > 25 µM.

**Q.** What about the activity at 10 µM (OVCAR-4; OVCAR-4, single dose 10 μM, read-out: percent cell growth promotion) of the same molecule?
**A.** Its activity at 10 µM is 19.3%.

**Q.** What about the GI50 (UO-31; UO-31, 5 log dose) of the same molecule?
**A.** Its GI50 is 1.36 µM.

**Q.** And the IC (TGI) (UO-31; UO-31, 5 log dose)?
**A.** The IC (TGI) was 6.66 µM.

**Q.** What about the CC50 (UO-31; UO-31, 5 log dose, 48 h, read-out: LC50 (the source's name)) of the same molecule?
**A.** The CC50 was 23.8 µM.

**Q.** What about the activity at 10 µM (UO-31; UO-31, single dose 10 μM, read-out: percent cell growth promotion) of the same molecule?
**A.** Its activity at 10 µM is 1.91%.

**Q.** And the IC (TGI) (MCF7; MCF7, read-out: TGI)?
**A.** Its IC (TGI) is 11.1 µM.

**Q.** What about the activity at 10 µM (MCF7; MCF7, read-out: percent cell growth promotion) of the same molecule?
**A.** Its activity at 10 µM is 9.2%.

**Q.** What about the CC50 (MCF7; MCF7, 5 log dose, 48 h, read-out: LC50 (the source's name)) of the same molecule?
**A.** The CC50 was > 25 µM.

**Q.** And the GI50 (MDA-MB 231/ATCC; MDA-MB-231)?
**A.** Its GI50 is 1.95 µM.

**Q.** And the IC (TGI) (MDA-MB 231/ATCC; MDA-MB-231, read-out: TGI)?
**A.** The IC (TGI) was 8.73 µM.

**Q.** What about the activity at 10 µM (MDA-MB 231/ATCC; MDA-MB-231, read-out: percent cell growth promotion) of the same molecule?
**A.** The activity at 10 µM was 19.9%.

**Q.** What about the CC50 (MDA-MB 231/ATCC; MDA-MB-231, MDA-MDA 231/ATCC, 5 log dose, 48 h, read-out: LC50 (the source's name)) of the same molecule?
**A.** The CC50 was > 25 µM.

**Q.** And the GI50 (HS 578T; Hs-578T)?
**A.** The GI50 was 2.95 µM.

**Q.** What about the IC (TGI) (HS 578T; Hs-578T, read-out: TGI) of the same molecule?
**A.** Its IC (TGI) is 12.9 µM.

**Q.** What about the activity at 10 µM (HS 578T; Hs-578T, read-out: percent cell growth promotion) of the same molecule?
**A.** Its activity at 10 µM is 26.6%.

**Q.** What about the CC50 (HS 578T; HS 578T, 5 log dose, 48 h, read-out: LC50 (the source's name)) of the same molecule?
**A.** The CC50 was > 25 µM.

**Q.** What about the GI50 (BT-549; BT-549) of the same molecule?
**A.** Its GI50 is 2.93 µM.

**Q.** And the IC (TGI) (BT-549; BT-549, read-out: TGI)?
**A.** The IC (TGI) was 8.2 µM.

**Q.** And the activity at 10 µM (BT-549; BT-549, read-out: percent cell growth promotion)?
**A.** The activity at 10 µM was 4.94%.

**Q.** What about the CC50 (BT-549; BT-549, 5 log dose, 48 h, read-out: LC50 (the source's name)) of the same molecule?
**A.** The CC50 was 22.9 µM.

**Q.** And the activity at 10 µM (MDA-MB-468; MDA-MB-468, MDA-MBA-468, single dose 10 μM, read-out: percent cell growth promotion)?
**A.** Its activity at 10 µM is -16.4%.

**Q.** And the GI50 (MDA-MB-468; MDA-MB-468, 5 log dose)?
**A.** Its GI50 is 1.9 µM.

**Q.** What about the IC (TGI) (MDA-MB-468; MDA-MB-468, 5 log dose) of the same molecule?
**A.** The IC (TGI) was 11.5 µM.

**Q.** What about the CC50 (MDA-MB-468; MDA-MB-468, 5 log dose, 48 h, read-out: LC50 (the source's name)) of the same molecule?
**A.** Its CC50 is > 25 µM.
